In test [1] the target is T1, Potassium voltage-gated channel subfamily A member 3 (Homo sapiens, UniProt P22001). In words: Inhibition of Kv1.3 (unknown origin). Type of test: single protein.
Test [2] addresses Potassium voltage-gated channel subfamily A member 2 (Homo sapiens, UniProt P16389). In words: Inhibition of Kv1.2 (unknown origin).
The target in test [3] is T1, Potassium voltage-gated channel subfamily A member 3. In words: Ratio of IC50 for Kv1.3 in human central memory T cells to IC50 for Kv1.3 in CD4+ MBP-specific multiple sclerosis patient effector memory T lymphocytes stimulated with 3 times MBP. Particulars: T-cell. Type of test: cell-based.

The values that follow come from ChEMBL document CHEMBL3879885 (2006).

The EC50 is the concentration at which the effect is half-maximal. Higher therefore signals a less potent agent.

T1 sequence (P22001 whole entry): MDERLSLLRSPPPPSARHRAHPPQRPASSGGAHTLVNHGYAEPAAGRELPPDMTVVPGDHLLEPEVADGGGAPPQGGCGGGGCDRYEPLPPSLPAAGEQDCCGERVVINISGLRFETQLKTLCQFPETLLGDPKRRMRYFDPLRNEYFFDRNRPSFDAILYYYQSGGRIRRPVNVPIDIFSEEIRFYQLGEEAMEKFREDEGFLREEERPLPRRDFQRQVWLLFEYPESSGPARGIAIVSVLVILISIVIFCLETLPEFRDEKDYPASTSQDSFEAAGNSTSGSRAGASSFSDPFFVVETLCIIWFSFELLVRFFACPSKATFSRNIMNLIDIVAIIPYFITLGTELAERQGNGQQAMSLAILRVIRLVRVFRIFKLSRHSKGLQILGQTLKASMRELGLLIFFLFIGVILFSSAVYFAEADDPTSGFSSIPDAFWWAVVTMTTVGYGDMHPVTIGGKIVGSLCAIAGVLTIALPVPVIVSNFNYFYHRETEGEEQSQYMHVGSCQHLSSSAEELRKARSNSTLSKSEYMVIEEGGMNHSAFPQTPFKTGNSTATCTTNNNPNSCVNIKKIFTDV
Potassium voltage-gated channel subfamily A member 2, sequence (P16389 whole entry): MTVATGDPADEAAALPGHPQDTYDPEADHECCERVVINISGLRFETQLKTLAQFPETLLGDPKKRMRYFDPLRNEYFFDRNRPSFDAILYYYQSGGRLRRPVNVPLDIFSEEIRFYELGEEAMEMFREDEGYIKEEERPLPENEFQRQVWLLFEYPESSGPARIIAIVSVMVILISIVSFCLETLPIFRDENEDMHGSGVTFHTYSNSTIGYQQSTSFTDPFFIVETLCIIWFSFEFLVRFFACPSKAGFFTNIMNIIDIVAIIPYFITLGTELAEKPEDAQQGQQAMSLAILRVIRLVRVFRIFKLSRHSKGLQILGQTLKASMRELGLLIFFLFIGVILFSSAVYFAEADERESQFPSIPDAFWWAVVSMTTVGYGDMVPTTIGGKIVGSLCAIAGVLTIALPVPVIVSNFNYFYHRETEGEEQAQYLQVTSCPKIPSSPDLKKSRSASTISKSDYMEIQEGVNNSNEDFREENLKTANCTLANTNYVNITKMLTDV

Compound `COc1cccc(OCCCCOc2c3ccoc3cc3oc(=O)ccc23)c1` came in with an EC50 in test [1] of 21 nM. In the case of `COc1cc(OC)cc(OCCCCOc2c3ccoc3cc3oc(=O)ccc23)c1`, the EC50 in test [1] was 120 nM. `O=c1ccc2c(OCCCCOc3ccccc3)c3ccoc3cc2o1` displayed an EC50 in test [2] of 250 nM. As to `O=c1ccc2c(OCCCCOc3cccc(C(F)(F)F)c3)c3ccoc3cc2o1`, the EC50 in test [1] worked out at 65 nM.

Compound `N#CCCCOc1c2ccoc2cc2oc(=O)ccc12` had an EC50 in test [1] of 5000 nM. In test [1], `N#CCCCOc1c2occc2cc2ccc(=O)oc12` registered an EC50 of 5000 nM. In the case of `CC[C@H](C)[C@@H]1NC(=O)[C@@H](NC(=O)[C@H](CO)NC(=O)[C@@H](N)CCCNC(=N)N)CSSC[C@@H](C(=O)O)NC(=O)[C@H]([C@@H](C)O)NC(=O)CNC(=O)[C@@H]2CSSC[C@@H]3NC(=O)[C@H](CCC(N)=O)NC(=O)[C@H](Cc4ccccc4)NC(=O)[C@H](C)NC(=O)[C@H]([C@@H](C)O)NC(=O)[C@H](CSSC[C@H](NC(=O)[C@H](Cc4ccccc4)NC(=O)[C@@H](CO)NC(=O)[C@@H](CC(C)C)NC(=O)[C@H](CCCNC(=N)N)NC(=O)[C@H](Cc4ccc(O)cc4)NC(=O)[C@H](CCCCN)NC(=O)[C@H](CCSC)NC(=O)[C@H](CO)NC(=O)[C@H](Cc4cnc[nH]4)NC(=O)[C@H](CCCCN)NC3=O)C(=O)N[C@@H](CCCNC(=N)N)C(=O)N[C@@H](CCCCN)C(=O)N[C@@H]([C@@H](C)O)C(=O)N2)NC(=O)[C@H](CCCNC(=N)N)NC(=O)[C@H](CO)NC(=O)[C@H](CCCCN)NC(=O)[C@@H]2CCCN2C(=O)[C@H]([C@@H](C)CC)NC(=O)[C@H]([C@@H](C)O)NC(=O)[C@H](CC(=O)O)NC1=O`, the Ratio IC50 in test [3] amounted to 10. `N#CCCCCOc1c2occc2cc2ccc(=O)oc12` showed an EC50 in test [1] of 5000 nM. The same measure, in the same setting: under `O=c1ccc2c(OCCCCOc3ccc(Cl)cc3)c3ccoc3cc2o1` stands 5 nM. The same measure, in the same setting: under `Cc1ccc(OCCCCOc2c3ccoc3cc3oc(=O)ccc23)c([N+](=O)[O-])c1` stands 700 nM; under `COc1cccc(OCCCOc2c3ccoc3cc3oc(=O)ccc23)c1`, 45 nM. `O=c1ccc2c(OCCCCOCc3ccccc3)c3ccoc3cc2o1` showed an EC50 in test [1] of 49 nM. Still for that read-out and setting: under `O=c1ccc2c(OCCCOCc3ccccc3)c3ccoc3cc2o1` stands 50 nM; under `O=c1ccc2ccc(OCCCCOc3c4ccoc4cc4oc(=O)ccc34)cc2o1`, 125 nM; under `O=c1ccc2c(OCCCCOc3ccc4ccccc4c3)c3ccoc3cc2o1`, 12 nM.

`N#CCCCCOc1c2ccoc2cc2oc(=O)ccc12` displayed an EC50 in test [1] of 1300 nM. Same read-out and setting: to `CCc1ccc(OCCCOc2c3ccoc3cc3oc(=O)ccc23)cc1` belongs 14 nM; to `COc1cc(OC)cc(OCCCOc2c3ccoc3cc3oc(=O)ccc23)c1`, 75 nM.

In test [1], `Cc1nnc(SCCCCOc2c3ccoc3cc3oc(=O)ccc23)s1` registered an EC50 of 175 nM.

In test [1], `CCc1ccc(OCCCCOc2c3ccoc3cc3oc(=O)ccc23)cc1` yielded an EC50 of 13 nM.

As for `O=C(CCCOc1c2ccoc2cc2oc(=O)ccc12)c1ccccc1`, the response in test [1] was half-maximal at 31 nM (EC50). For `COc1ccc2sc(SCCCCOc3c4ccoc4cc4oc(=O)ccc34)nc2c1`, a half-maximal effect in test [1] (EC50) was put at 35 nM. In test [1], `O=c1ccc2c(OCCCCOc3cccc4ccccc34)c3ccoc3cc2o1` yielded an EC50 of 20 nM. Same read-out and setting: to `O=c1ccc2c(OCCCCOc3ccc([N+](=O)[O-])cc3)c3ccoc3cc2o1` belongs 7 nM. For the compound `Cc1ccc(OCCCCOc2c3ccoc3cc3oc(=O)ccc23)cc1`, in test [1], the response was half-maximal at 7 nM (EC50). Same read-out and setting: to `COc1cc(OC)cc(OCCCCCOc2c3ccoc3cc3oc(=O)ccc23)c1` belongs 32 nM.

As to `CCc1ccc(OCCCCCOc2c3ccoc3cc3oc(=O)ccc23)cc1`, in test [1], the EC50 came to 35 nM. Still for that read-out and setting: under `O=c1ccc2c(OCCCOc3ccc(Cl)cc3)c3ccoc3cc2o1` stands 10 nM; under `O=c1ccc2c(OCCOCc3ccccc3)c3ccoc3cc2o1`, 10 nM. Consider `O=c1ccc2c(OCCCCn3cccn3)c3ccoc3cc2o1`, for which, in test [1], the response was half-maximal at 450 nM (EC50). In the case of `COc1ccc(OCCCCOc2c3ccoc3cc3oc(=O)ccc23)cc1`, the response in test [1] was half-maximal at 8 nM (EC50). On the same count and under the same terms, under `O=c1ccc2c(OCCCOc3ccccc3)c3ccoc3cc2o1` stands 15 nM; under `O=c1ccc2c(OCCCCOc3ccc(Oc4ccccc4)cc3)c3ccoc3cc2o1`, 16 nM; under `O=c1ccc2c(OCCCCCOc3ccccc3)c3ccoc3cc2o1`, 15 nM.

In test [1], `O=c1ccc2c(OCCCCSc3ncccn3)c3ccoc3cc2o1` yielded an EC50 of 50 nM.
